Consider 80 compounds from the METLIN SMRT retention time set (Domingo-Almenara et al. 2019).

The nature of this series: gradient 5% acetonitrile 3 min, to 50% in 2 min, to 85% in 15 min, held 3 min, 100 µL/min. The conditions noted are these: column: Zorbax Extend-C18 2.1 x 50 mm; eluents: water / acetonitrile, 0.1% formic acid. The gist of the method: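 Over 3 months, pure standards in mixtures of ~100 molecules were run by HPLC coupled to a quadrupole time-of-flight mass spectrometer in positive and negative ionization mode. The column was a Zorbax Extend-C18 (2.1 × 50 mm, 1.8 μm) at 100 μL/min, eluted with water and acetonitrile each holding 0.1% formic acid, with 40 μL dead and 900 μL dwell volumes. Retention time was determined from adduct peaks chosen by software and checked manually.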
In the case of `CCOc1ccc(Nc2c(C(=O)N3CCCCC3C)cnc3nc(C)ccc23)cc1` (stereo not given), the RP-LC retention time is 668 s. The result for `O=C(Nc1ccc2nnc(-c3ccc(C(=O)N4CCCCC4)cc3)n2c1)C1CCC1` reads 562 s.

Compound `COc1ccc(Br)c(-c2nnc(C)o2)c1` yielded an RP-LC retention time of 797 s.

As for `Cc1ccc(-c2nc(-c3ccc4c(c3)oc(=O)n4C(C)C)no2)c(C)c1`, the RP-LC retention time amounted to 761 s. The result for `Cc1cc(C)cc(NC(=O)Nc2nccn(-c3ccc(Br)cc3)c2=O)c1` reads 1130 s. The result for `CCSc1nnc(NC(=O)CSc2nnc(COc3ccccc3)o2)s1` reads 806 s; that for `COC1CN(c2ccc(C)cc2)C12CCNCC2` (stereo not given), 622 s; that for `O=C(NC1CC1)c1ccc(OCC2CCN(C(=O)Cc3ccc(F)cc3)CC2)cc1`, 787 s. `COc1ccc(-c2cc(C(=O)N3CCC(Cc4ccccc4)CC3)no2)cc1` returned an RP-LC retention time of 1120 s. In the case of `O=C(Nc1cccc(C(F)(F)F)c1)Nc1cnn(-c2ncc(N3CCCC3)cn2)c1` it was 921 s; in that of `Cc1noc(C)c1S(=O)(=O)N1CCC2(CC1)CC(CCOc1ccc(F)cc1)CCO2` (stereo not given), 1220 s; in that of `CN(C)S(=O)(=O)c1ccc(-c2nc3ccccc3s2)cc1`, 578 s.

Consider `O=C(CCNNC(=O)c1ccncc1)NCc1ccccc1`, for which the RP-LC retention time came out at 636 s. In the case of `Cc1cc(C)c(S(=O)(=O)Nc2cccc(-c3cn4ccccc4n3)c2)c(C)c1` it was 667 s; in that of `COc1cccc(N2CCN(c3ccnc(SCC(=O)NCCCc4ccccc4)n3)CC2)c1`, 804 s; in that of `COCCNC(=O)C1CCCN(c2cnc3nc(C)c(C)nc3c2)C1` (stereo not given), 602 s. In the case of `O=C(NC1CCCCCC1)C1CCN(c2ccncc2)CC1` it was 610 s; in that of `COCCN1CCC2(CC1)CN(Cc1cc(Cl)ccc1F)Cc1ccccc1O2`, 778 s; in that of `Cc1ccc(CNC(=O)C2CCN(c3cncnc3N3CCOCC3)CC2)cc1C`, 649 s.

Compound `CC1=C(c2ccc(F)cc2)S(=O)(=O)N=C1N1CCCN(C(=O)CC(C)C)CC1` gave an RP-LC retention time of 814 s. The result for `CCOC(=O)c1nc(N(CC)c2ccc(OC)cc2)c2ccccc2n1` reads 941 s. `COc1ccccc1-c1nnc(-c2ccc(C)c(S(=O)(=O)N3CCOCC3)c2)o1` yielded an RP-LC retention time of 867 s. `Cc1c(-c2ccnc(N3CCCC3)n2)cnc2nc(-c3ccccc3)nn12` displayed an RP-LC retention time of 933 s. In the case of `COc1ccc(-c2nsc(C(=O)NCc3cccs3)c2N)cc1` it was 866 s; in that of `Cn1c(C2CCN(C(=O)c3ccc(C(F)(F)F)s3)C2)nc2cccnc21` (stereo not given), 716 s. In the case of `Cc1ccc(N2CCC(NC(=O)CC(C)C)C2=O)cc1` (stereo not given) it was 762 s. The result for `Cc1ccc(S(=O)(=O)N2C(=O)CCC2C(=O)NCc2nc(-c3cccc(C)c3)no2)cc1` (stereo not given) reads 910 s. Compound `COC(=O)c1c(C)[nH]c(C(=O)N2CCCC(C(=O)NCCCN3CCCCCC3)C2)c1C` (stereo not given) gave an RP-LC retention time of 592 s. In the case of `Cc1cccc(-c2nc(-c3ccc4c(c3)nc(C)c(=O)n4C)no2)c1` it was 1120 s.

In the case of `COc1cccc(NC(=O)C2CCN(c3nnc4c(Cl)cccn34)CC2)c1`, the RP-LC retention time came to 666 s. The compound `Cc1nc(-c2noc(-c3ccccc3)n2)cn1CC(=O)NCc1cccs1` had an RP-LC retention time of 789 s. The result for `CC(C)NC(=O)c1ccc2c(c1)CCCN2S(C)(=O)=O` reads 717 s; that for `CCc1nn(CC(=O)NCCc2c[nH]c3ccccc23)c(=O)c2cc3sccc3n12`, 842 s. In the case of `CCOc1ccccc1CNS(=O)(=O)c1ccc2c(c1)CCCC(=O)N2` it was 761 s; in that of `COc1ccc(S(=O)(=O)N2CCCC(C(=O)Nc3cc(C)ccc3C)C2)cc1Cl` (stereo not given), 1040 s. With `O=C(CCCCn1c(=O)c2ccccc2n(Cc2ccccc2)c1=O)NCc1cccs1`, the RP-LC retention time is 847 s. In the case of `CC1=C(c2ccc(F)cc2)S(=O)(=O)N=C1N1CCCN(C(=O)CCC(C)C)CC1` it was 879 s; in that of `Cc1ccc2c(c1)N(S(C)(=O)=O)CCC(C(=O)Nc1ccc(Br)c(C)c1)O2` (stereo not given), 1090 s. For the compound `O=C(O)Cc1sc(NCc2ccccc2)nc1-c1ccccc1`, the RP-LC retention time amounted to 681 s.

In the case of `Cc1ccc(C2Cn3cnc(C(=O)N4CCC(C(=O)NCc5ccco5)CC4)c3CO2)cc1` (stereo not given), the RP-LC retention time was 729 s. The result for `Brc1cccc(-c2nc3ccccn3c2Nc2ccc3c(c2)OCCO3)c1` reads 714 s. The result for `Cc1nc2ccc(Cl)cn2c(=O)c1NC(=O)c1cccs1` reads 620 s. Regarding `O=c1ccc(-c2ccccc2)nn1Cc1nc(-c2ccc(Br)cc2)no1`, the RP-LC retention time turned out to be 1100 s.

As to `CCn1cc(-c2ccc(Cl)cc2)cc1C(=O)NCc1ccncc1`, the RP-LC retention time was 720 s. The result for `CCNS(=O)(=O)c1cc(-c2c(C)noc2C)ccc1C` reads 807 s; that for `NS(=O)(=O)c1ccc(NC(=O)Cn2cnc(-c3ccccc3)cc2=O)cc1`, 638 s.

Compound `CCc1ccc(S(=O)(=O)Nc2cccc(-c3cn4c(C)cccc4n3)c2)cc1` had an RP-LC retention time of 667 s.

In turn, `CCN1c2ccccc2C(=O)NC12CCN(C(=O)c1cc(C)cc(C)c1)CC2` yielded an RP-LC retention time of 868 s. `COc1ccc(NC(=O)C2CCCN(C(=O)C3Sc4ccccc4NC3=O)C2)cc1` (stereo not given) displayed an RP-LC retention time of 750 s.

`COCCNc1c(-c2ccc(F)cc2)nc2sc(C(=O)N3CCCC3)c(C)n12` came in with an RP-LC retention time of 757 s.

In the case of `Cn1cccc1C(=O)NCc1cnoc1-c1ccc(F)cc1`, the RP-LC retention time is 860 s. In the case of `Cc1ccccc1-c1nc(C2CC(=O)N(c3ccc(F)c(Cl)c3)C2)no1` (stereo not given) it was 1140 s; in that of `CCOC(=O)c1[nH]c(C)c(CCC(=O)N2CCC(C(=O)N3CCCC3)CC2)c1C`, 687 s; in that of `CCNC(=O)C1CCc2sc(C(=O)N3CCCC3)cc2C1` (stereo not given), 663 s. Compound `COC1C(=O)N(CC2CC2)C12CCN(C(=O)c1ccc(C)s1)CC2` (stereo not given) registered an RP-LC retention time of 566 s. The result for `COc1cccc(NC(=O)c2sc(-c3cn(C)c4ncccc34)nc2C)c1` reads 927 s; that for `O=C(Nc1nnc(C2CC(=O)N(c3ccc(F)cc3)C2)o1)c1ccccc1` (stereo not given), 711 s. In the case of `CCOc1ccc(-c2csc(NC(=O)CCCOc3ccc(CC)cc3)n2)cc1` it was 1290 s. The result for `O=c1[nH]c2ccc(NCc3ccc(F)cc3)cc2[nH]1` reads 580 s; that for `CCc1nc(-c2csc(S(=O)(=O)N3CCCC(C(=O)Nc4cccc(OC)c4)C3)c2)no1` (stereo not given), 1000 s; that for `Cc1noc2ncn(CC(=O)Nc3ccccc3F)c(=O)c12`, 732 s. For `O=C(c1ccc2c(c1)OCO2)N1CCC2(CC1)NC(=O)N(Cc1ccccc1Cl)C2=O`, the RP-LC retention time turned out to be 838 s. The result for `CCC(CC)C(=O)N1CCCC(Cn2c(C3CC3)nc3cccnc32)C1` (stereo not given) reads 682 s; that for `Cc1oc(C2CCN(C(=O)Nc3ccccc3F)CC2)nc1C(=O)N1CCCC1`, 753 s; that for `Cc1noc(C)c1S(=O)(=O)N1CCC(C(C)C(=O)NCCc2c[nH]c3ccccc23)CC1` (stereo not given), 858 s.

As for `CC(C(=O)NCCCN1CCOCC1)C1CCN(C(=O)c2cc3cc(Cl)ccc3[nH]2)CC1` (stereo not given), the RP-LC retention time came to 648 s.

Turning to `CN(C)c1cc(-n2cnc(C(=O)Nc3ccc4c(c3)OCO4)c2)ncn1`, the RP-LC retention time was 774 s. In the case of `Cc1csc(NC(=O)c2cn(Cc3cccc(F)c3)nc2OCc2cccc(F)c2)n1` it was 1080 s. With `CC(=O)N1CCc2cc(N3CC(C(=O)Nc4ccc(C(F)(F)F)cc4)CC3=O)ccc21` (stereo not given), the RP-LC retention time is 798 s. `O=C(Nc1ccc(Cl)cc1F)c1cnc(-c2ccc(F)cc2)nc1-c1ccncc1` gave an RP-LC retention time of 992 s. The compound `Cc1oc(C2CCN(C(=O)C3CCCN(S(=O)(=O)N4CCCC4)C3)CC2)nc1C(=O)N1CCCC1` (stereo not given) registered an RP-LC retention time of 737 s. In the case of `COCCNC(=O)c1ccc(-c2ccc(N3CCSCC3)nc2)cc1` it was 624 s; in that of `CCN1c2ccc(C)cc2C(=O)NC12CCN(C(=O)c1ccc(Cl)cc1)CC2`, 858 s.

Turning to `CCn1cc(-c2nc(CC(=O)Nc3ccc(F)cc3Cl)cs2)c2cccnc21`, the RP-LC retention time worked out at 720 s. The result for `CC(C)Cc1csc(-c2csc(S(=O)(=O)NCc3ccc(Cl)cc3)c2)n1` reads 1240 s; that for `COc1ccc(NC(=O)CSc2nnc3c4sc(N5CCCC5)nc4ncn23)cc1`, 754 s. The result for `Cc1cccc(-c2noc(C3CCCN3S(=O)(=O)c3c(C)c(C)cc(C)c3C)n2)c1` (stereo not given) reads 849 s. The result for `COCCC(=O)NC1CCN(C2=NS(=O)(=O)C(c3cccc(Cl)c3)=C2C)CC1` reads 722 s; that for `CN(CCc1ccccn1)C(=O)c1cccc(N2CCNC(c3ccccc3)C2)n1` (stereo not given), 555 s. For `O=C(CSc1ccncc1)NCc1cc(-c2ccco2)on1`, the RP-LC retention time turned out to be 552 s.
